Results as given in ChEMBL document CHEMBL3994622, “Design and synthesis of new RAF kinase-inhibiting antiproliferative quinoline derivatives. Part 2: Diarylurea derivatives” (Eur J Med Chem, 2017).

How the values were obtained:
Assay type in all cases: functional
K562 = assay: Growth inhibition of human K562 cells assessed as cell growth at 10 uM incubated for 48 hrs by sulforhodamine B assay relative to control; conditions: K562, 48 h, read-out: Activity
MOLT-4 = assay: Growth inhibition of human MOLT4 cells assessed as cell growth at 10 uM incubated for 48 hrs by sulforhodamine B assay relative to control; conditions: MOLT-4, 48 h, read-out: Activity
SR = assay: Growth inhibition of human SR cells assessed as cell growth at 10 uM incubated for 48 hrs by sulforhodamine B assay relative to control; conditions: read-out: Activity
A549 = assay: Growth inhibition of human A549/ATCC cells assessed as cell growth at 10 uM incubated for 48 hrs by sulforhodamine B assay relative to control; conditions: A549, 48 h, read-out: Activity
EKVX = assay: Growth inhibition of human EKVX cells assessed as cell growth at 10 uM incubated for 48 hrs by sulforhodamine B assay relative to control; conditions: read-out: Activity
NCI-H226 = assay: Growth inhibition of human NCI-H226 cells assessed as cell growth at 10 uM incubated for 48 hrs by sulforhodamine B assay relative to control; conditions: NCI-H226, 48 h, read-out: Activity
NCI-H460 = assay: Growth inhibition of human NCI-H460 cells assessed as cell growth at 10 uM incubated for 48 hrs by sulforhodamine B assay relative to control; conditions: NCI-H460, 48 h, read-out: Activity
NCI-H522 = assay: Growth inhibition of human NCI-H522 cells assessed as cell growth at 10 uM incubated for 48 hrs by sulforhodamine B assay relative to control; conditions: NCI-H522, 48 h, read-out: Activity
COLO 205 = assay: Growth inhibition of human COLO205 cells assessed as cell growth at 10 uM incubated for 48 hrs by sulforhodamine B assay relative to control; conditions: COLO 205, 48 h, read-out: Activity
HCC 2998 = assay: Growth inhibition of human HCC2998 cells assessed as cell growth at 10 uM incubated for 48 hrs by sulforhodamine B assay relative to control; conditions: HCC 2998, 48 h, read-out: Activity
HCT-15 = assay: Growth inhibition of human HCT15 cells assessed as cell growth at 10 uM incubated for 48 hrs by sulforhodamine B assay relative to control; conditions: HCT-15, 48 h, read-out: Activity
HT-29 = assay: Growth inhibition of human HT-29 cells assessed as cell growth at 10 uM incubated for 48 hrs by sulforhodamine B assay relative to control; conditions: HT-29, 48 h, read-out: Activity
SF-268 = assay: Growth inhibition of human SF268 cells assessed as cell growth at 10 uM incubated for 48 hrs by sulforhodamine B assay relative to control; conditions: SF-268, 48 h, read-out: Activity
SF-295 = assay: Growth inhibition of human SF295 cells assessed as cell growth at 10 uM incubated for 48 hrs by sulforhodamine B assay relative to control; conditions: SF-295, 48 h, read-out: Activity
SNB-19 = assay: Growth inhibition of human SNB19 cells assessed as cell growth at 10 uM incubated for 48 hrs by sulforhodamine B assay relative to control; conditions: SNB-19, 48 h, read-out: Activity
SNB-75 = assay: Growth inhibition of human SNB75 cells assessed as cell growth at 10 uM incubated for 48 hrs by sulforhodamine B assay relative to control; conditions: SNB-75, 48 h, read-out: Activity
LOX IMVI = assay: Growth inhibition of human LOXIMVI cells assessed as cell growth at 10 uM incubated for 48 hrs by sulforhodamine B assay relative to control; conditions: read-out: Activity
M14 = assay: Growth inhibition of human M14 cells assessed as cell growth at 10 uM incubated for 48 hrs by sulforhodamine B assay relative to control; conditions: M14, 48 h, read-out: Activity
MDA-MB-435 = assay: Growth inhibition of human MDA-MB-435 cells assessed as cell growth at 10 uM incubated for 48 hrs by sulforhodamine B assay relative to control; conditions: MDA-MB-435, 48 h, read-out: Activity
SK-MEL-2 = assay: Growth inhibition of human SK-MEL-2 cells assessed as cell growth at 10 uM incubated for 48 hrs by sulforhodamine B assay relative to control; conditions: SK-MEL-2, 48 h, read-out: Activity
UACC-257 = assay: Growth inhibition of human UACC257 cells assessed as cell growth at 10 uM incubated for 48 hrs by sulforhodamine B assay relative to control; conditions: UACC-257, 48 h, read-out: Activity
UACC-62 = assay: Growth inhibition of human UACC62 cells assessed as cell growth at 10 uM incubated for 48 hrs by sulforhodamine B assay relative to control; conditions: UACC-62, 48 h, read-out: Activity
IGROV-1 = assay: Growth inhibition of human IGROV1 cells assessed as cell growth at 10 uM incubated for 48 hrs by sulforhodamine B assay relative to control; conditions: IGROV-1, 48 h, read-out: Activity
OVCAR-4 = assay: Growth inhibition of human OVCAR4 cells assessed as cell growth at 10 uM incubated for 48 hrs by sulforhodamine B assay relative to control; conditions: OVCAR-4, 48 h, read-out: Activity
OVCAR-5 = assay: Growth inhibition of human OVCAR5 cells assessed as cell growth at 10 uM incubated for 48 hrs by sulforhodamine B assay relative to control; conditions: OVCAR-5, 48 h, read-out: Activity
A498 = assay: Growth inhibition of human A498 cells assessed as cell growth at 10 uM incubated for 48 hrs by sulforhodamine B assay relative to control; conditions: A498, 48 h, read-out: Activity
ACHN = assay: Growth inhibition of human ACHN cells assessed as cell growth at 10 uM incubated for 48 hrs by sulforhodamine B assay relative to control; conditions: read-out: Activity
CAKI-1 = assay: Growth inhibition of human Caki1 cells assessed as cell growth at 10 uM incubated for 48 hrs by sulforhodamine B assay relative to control; conditions: CAKI-1, 48 h, read-out: Activity
DU-145 = assay: Growth inhibition of human DU145 cells assessed as cell growth at 10 uM incubated for 48 hrs by sulforhodamine B assay relative to control; conditions: DU-145, 48 h, read-out: Activity
MCF7 = assay: Growth inhibition of human MCF7 cells assessed as cell growth at 10 uM incubated for 48 hrs by sulforhodamine B assay relative to control; conditions: MCF7, 48 h, read-out: Activity
Hs-578T = assay: Growth inhibition of human Hs 578T cells assessed as cell growth at 10 uM incubated for 48 hrs by sulforhodamine B assay relative to control; conditions: read-out: Activity
BT-549 = assay: Growth inhibition of human BT549 cells assessed as cell growth at 10 uM incubated for 48 hrs by sulforhodamine B assay relative to control; conditions: BT-549, 48 h, read-out: Activity
T47D = assay: Growth inhibition of human T47D cells assessed as cell growth at 10 uM incubated for 48 hrs by sulforhodamine B assay relative to control; conditions: read-out: Activity

Structure (SMILES) | growth at 10 µM (K562) | growth at 10 µM (MOLT-4) | growth at 10 µM (SR) | growth at 10 µM (A549) | growth at 10 µM (EKVX) | growth at 10 µM (NCI-H226) | growth at 10 µM (NCI-H460) | growth at 10 µM (NCI-H522) | growth at 10 µM (COLO 205) | growth at 10 µM (HCC 2998) | growth at 10 µM (HCT-15) | growth at 10 µM (HT-29) | growth at 10 µM (SF-268) | growth at 10 µM (SF-295) | growth at 10 µM (SNB-19) | growth at 10 µM (SNB-75) | growth at 10 µM (LOX IMVI) | growth at 10 µM (M14) | growth at 10 µM (MDA-MB-435) | growth at 10 µM (SK-MEL-2) | also measured
COc1cc2cc(Oc3ccc(NC(=O)Nc4ccc(Cl)c(Cl)c4)cc3)c(C)nc2cc1OC | 12.7% | 3.69% | 18% | 4.35% | 21% | 7.74% | 3.68% | -13.8% | 4.03% | 37.6% | 18.9% | 10.9% | 43.7% | 0.69% | 28.6% | 22.4% | 23.1% | 25.8% | 12.3% | -7.82% | growth at 10 µM (UACC-257): 1.38%; growth at 10 µM (UACC-62): 20.4%; growth at 10 µM (IGROV-1): 18.6%; growth at 10 µM (OVCAR-4): 31.9%; growth at 10 µM (OVCAR-5): 53%; growth at 10 µM (A498): 35.8%; growth at 10 µM (ACHN): 16.4%; growth at 10 µM (CAKI-1): 21.8%; growth at 10 µM (DU-145): 24.8%; growth at 10 µM (MCF7): 13.8%; growth at 10 µM (Hs-578T): 45.1%; growth at 10 µM (BT-549): 28.1%; growth at 10 µM (T47D): 60.9%
COc1cc2cc(Oc3ccc(NC(=O)Nc4ccccc4)cc3)c(C)nc2cc1OC | 42.8% | 37.9% | 42.6% | 58.4% | 63.4% | 39.8% | 69% | 67.2% | 85.7% | 105% | 64.1% | 48.9% | 88.1% | 54% | 94.8% | 75.8% | 82.1% | 93.7% | 89.4% | 78.8% | growth at 10 µM (UACC-257): 92.4%; growth at 10 µM (UACC-62): 88.4%; growth at 10 µM (IGROV-1): 103%; growth at 10 µM (OVCAR-4): 70.2%; growth at 10 µM (OVCAR-5): 99.7%; growth at 10 µM (A498): 54%; growth at 10 µM (ACHN): 84.5%; growth at 10 µM (CAKI-1): 88.7%; growth at 10 µM (DU-145): 88.7%; growth at 10 µM (MCF7): 72.8%; growth at 10 µM (Hs-578T): 78%; growth at 10 µM (BT-549): 104%; growth at 10 µM (T47D): 97.1%
COc1cc2cc(Oc3ccc(NC(=O)Nc4ccc(C)cc4)cc3)c(C)nc2cc1OC | 90.8% | 82.4% | 83.1% | 102% | 107% | 102% | 108% | 69.9% | 111% | 104% | 103% | 115% | 80.2% | 107% | 97.1% | 56.3% | 102% | 124% | 107% | 91.5% | growth at 10 µM (UACC-257): 112%; growth at 10 µM (UACC-62): 99.3%; growth at 10 µM (IGROV-1): 101%; growth at 10 µM (OVCAR-5): 110%; growth at 10 µM (A498): 116%; growth at 10 µM (ACHN): 103%; growth at 10 µM (CAKI-1): 98.2%; growth at 10 µM (DU-145): 102%; growth at 10 µM (MCF7): 94.5%; growth at 10 µM (Hs-578T): 76.5%; growth at 10 µM (BT-549): 130%; growth at 10 µM (T47D): 101%
